From patent US20130143969A1 (THE OHIO STATE UNIVERSITY, priority 2010, published 2013)

Columns and labels:
[1] = In-vitro stability of curcumin in mouse plasma at 37° C; type: in vitro ADME
Excerpt: Therefore, all mouse blood and plasma samples have to be processed on ice to avoid potential degradation for its pharmacokinetic studies.

[2] = test system: DNMT3a; experiment: Quantitative RT-PCR of DNMT3a mRNA in MV4-11 cells; type: cell-based; conditions: 10 μM
Experimental: (§1) Cell Cycle and Apoptosis Analysis: MV4-11, ML-1, HL-60 and K562 leukemia cell lines were cultured in RPMI medium (VWR International, Inc., West Chester, Pa.) supplemented with 10% fetal bovine serum (Invitrogen, Carlsbad, Calif.) and 1% (v/v) penicillin/streptomycin (Invitrogen Life Technologies; Carlsbad, Calif.) antibiotic solution at 37° C. in an incubator under 5% CO2 atmosphere. For the ex-vivo studies, mononuclear cells obtained from bone marrow (BM) of patient with AML were prepared by Ficoll-Hypaque (Nygaard) gradient centrifugation and cultured with serum-free expansion medium (SFEM) (StemCell technologies, Vancouver, BC) supplemented with GM-CSF (50 ng/ml), IL-3 (20 ng/ml), IL-6 (20 ng/ml) and SCF ([…]). […] The cell cycle and apoptosis of MV4-11 cells was analyzed on a BD FACS Calibur (Beckman Coulter, Fullerton, Calif.) according to the standard protocol provided by the manufacturer.
Quantitative RT-PCR was used to quantify the mRNA levels of DNMT1, DNMT3a, DNMT3b, p15INK4B and p21. […] Quantitative real-time PCR reactions were performed in triplicate using Taqman gene expression assay (Applied Biosystems) with an ABI prism 7700 detector (Applied Biosystems). The target gene values were normalized to the values of internal control GAPDH or 18 S, and expressed as relative percent change (100×2^(˜ΔΔCt)) over non-treated samples.

[3] = test system: DNMT1; experiment: Western blot of DNMT1 protein in leukemia cells; type: cell-based
Experimental: (§2) Cell Cycle and Apoptosis Analysis: MV4-11, ML-1, HL-60 and K562 leukemia cell lines were cultured in RPMI medium (VWR International, Inc., West Chester, Pa.) supplemented with 10% fetal bovine serum (Invitrogen, Carlsbad, Calif.) and 1% (v/v) penicillin/streptomycin (Invitrogen Life Technologies; Carlsbad, Calif.) antibiotic solution at 37° C. in an incubator under 5% CO2 atmosphere. […] The cell cycle and apoptosis of MV4-11 cells was analyzed on a BD FACS Calibur (Beckman Coulter, Fullerton, Calif.) according to the standard protocol provided by the manufacturer.
(§3) Cells or tumor tissues were homogenized and lysed in ice-cold lysis buffer (20 mM, pH 7.0 HEPES, 150 mM NaCl, 0.1% NP40 supplemented with 1 mM β-glycerophosphate, 1 mM Na3VO4, 1 mM NaF, 1 mM benzamide and 1 mM phenylmethylsulfonyl fluoride) with protease inhibitors (Protease Inhibitor cocktail Set III, Calbiochem-Novabiochem Corporation, La Jolla, Calif.), and incubated on ice for 20 mM. […] The immunoblotted proteins were detected by ECL reagent (GE Healthcare Bio-Sciences Corp., Piscataway, N.J.).

[4] = test system: DNMT3a; experiment: Western blot of DNMT3a protein in MV4-11 cells; type: cell-based
Experimental: as §2, §3

[5] = test system: DNMT3b; experiment: Western blot of DNMT3b protein in MV4-11 cells; type: cell-based
Experimental: as §2, §3

[6] = test system: DNMT1; experiment: DNMT1 mRNA and protein in MV4-11 engrafted tumor tissues; type: in vivo; conditions: MV4-11 engrafted mice, curcumin i.p. 100 mg/kg
Experimental: Cells or tumor tissues were homogenized and lysed in ice-cold lysis buffer (20 mM, pH 7.0 HEPES, 150 mM NaCl, 0.1% NP40 supplemented with 1 mM β-glycerophosphate, 1 mM Na3VO4, 1 mM NaF, 1 mM benzamide and 1 mM phenylmethylsulfonyl fluoride) with protease inhibitors (Protease Inhibitor cocktail Set III, Calbiochem-Novabiochem Corporation, La Jolla, Calif.), and incubated on ice for 20 mM. The lysate was centrifuged at 12,000 g for […] at 4° C. Proteins in the supernatants were resolved on 4-15% SDS-polyacrylamide gradient gels, and then transferred onto nitrocellulose membranes, incubated with appropriate antibodies and subjected to Western blotting. The immunoblotted proteins were detected by ECL reagent (GE Healthcare Bio-Sciences Corp., Piscataway, N.J.).
Quantitative RT-PCR was used to quantify the mRNA levels of DNMT1, DNMT3a, DNMT3b, p15INK4B and p21. Total RNA was extracted with Trizol reagent (Invitrogen, Carlsbad, Calif.) and reverse transcribed by reverse transcriptase (Invitrogen). Quantitative real-time PCR reactions were performed in triplicate using Taqman gene expression assay (Applied Biosystems) with an ABI prism 7700 detector (Applied Biosystems). The target gene values were normalized to the values of internal control GAPDH or 18 S, and expressed as relative percent change (100×2^(˜ΔΔCt)) over non-treated samples. […]

[7] = test system: DNMT3a; experiment: DNMT3a mRNA in MV4-11 engrafted tumor tissues; type: in vivo; conditions: MV4-11 engrafted mice, curcumin i.p. 100 mg/kg
Experimental: (§4) Quantitative RT-PCR was used to quantify the mRNA levels of DNMT1, DNMT3a, DNMT3b, p15INK4B and p21. Total RNA was extracted with Trizol reagent (Invitrogen, Carlsbad, Calif.) and reverse transcribed by reverse transcriptase (Invitrogen). Quantitative real-time PCR reactions were performed in triplicate using Taqman gene expression assay (Applied Biosystems) with an ABI prism 7700 detector (Applied Biosystems). The target gene values were normalized to the values of internal control GAPDH or 18 S, and expressed as relative percent change (100×2^(˜ΔΔCt)) over non-treated samples.
Female athymic nu/nu mice (4-6 weeks old, 18-22 g) were obtained from Charles River Laboratory (Wilmington, Mass.) and acclimated for 1 week in a pathogen-free enclosure before start of study. Animals were given sterile rodent chow and water ad libitum and were housed in sterile filter-top cages with 12 hour light/dark cycles. All experiments were conducted in accordance with the guidelines of the Association for Assessment and Accreditation of Laboratory Animal Care International. […] Tumor volume was calculated by using the equation V=2×A×B^2/3, where A is the longer (horizontal as width) diameter (mm) and B is the shorter (perpendicular as depth) diameter (mm) and expressed in cubic millimeter. […]

[8] = test system: DNMT1; experiment: Ex vivo DNMT1 mRNA and protein in AML patient primary blast cells; type: cell-based, human
Experimental: as §2, §3
Quantitative RT-PCR was used to quantify the mRNA levels of DNMT1, DNMT3a, DNMT3b, p15INK4B and p21. […] Quantitative real-time PCR reactions were performed in triplicate using Taqman gene expression assay (Applied Biosystems) with an ABI prism 7700 detector (Applied Biosystems). […]

[9] = test system: p15^INK4B; experiment: Quantitative RT-PCR of p15INK4B mRNA in leukemia cells; type: cell-based; conditions: for increase of p15INK4B expression level: MV4-11 cells, 10 μM curcumin
Experimental: as §1, §4

[10] = test system: MV4-11 cells; experiment: Cell cycle distribution by flow cytometry; type: cell-based; conditions: 10 μM curcumin, 48 hour
Experimental: as §1

[11] = test system: MV4-11 cells; experiment: Apoptosis analysis; type: cell-based; conditions: 10 μM curcumin
Experimental: as §1

[12] = test system: MV4-11 cells; experiment: Cell viability / anti-proliferation; type: cell-based
[13] = test system: HL-60 cells; experiment: Cell viability / anti-proliferation; type: cell-based
[14] = test system: K562; experiment: Cytotoxicity; type: cell-based; conditions: Homo sapiens
[15] = rats, orally administered; cited from earlier work

## COc1cc(/C=C/C(=O)CC(=O)/C=C/c2ccc(O)c(OC)c2)ccc1O [curcumin]
[1]
  half-life: 23.6 min
[1]; by 4 hour
  curcumin level (below detection limit): < 1 ng/mL
[1]; in 2 hours
  curcumin decomposed: more than 97%
[2]; 48 h
  DNMT3a mRNA level, % of the control: 50%
[2]; 72 h
  DNMT3a mRNA level, % of the control: 20%
[3]; ML-1 cells
  DNMT1 protein level decrease: 50%
[3]; MV4-11 cells, 10 μM
  DNMT1 protein level: completely depleted
[4]
  DNMT3a protein level reduction: 50%
[5]
  DNMT3b protein level reduction: 50%
[6]
  mRNA level of DNMT1 in engrafted tissues: significantly decreases
  protein level of DNMT1 in engrafted tissues, decrease: 50%
[7]
  mRNA level of DNMT3a in engrafted tissues: significantly decreases
[8]
  DNMT1 mRNA: down-regulate
  DNMT1 protein level: down-regulate
[9]; AML primary blast cells
  p15INK4B reactivation: reactivated
[9]; HL-60 leukemia cells
  p15INK4B reactivation: reactivated
[9]; 48 hours
  increase of p15INK4B expression level: approximately 12 fold
[9]; 72 hours
  increase of p15INK4B expression level: ~43 fold
[10]
  cell population in G0/G1 phase: 52.0%
  cell population in G2/M phase: 8.0%
  cell population in S phase: 16.1%
  cell population in SubG1 phase: 24.9%
[11]
  portion of apoptotic cells: ~30%
[12]; Homo sapiens, MV4-11
  IC50: 10 to 15 µM
[12]; MV4-11 cells (FIG. 13B)
  cell viability decreased to: 60-70%
[13]; HL-60 cells (FIG. 13B)
  cell viability decreased to: 60-70%
[13]; Homo sapiens, HL-60
  IC50: 10 to 15 µM
[14]
  IC50: 10.4 µM
[15]
  elimination half-life (T1/2): 102 ± 30 min
